Results from PMC4519859, “Synthesis and Biological Evaluation of Novel Dehydroabietic Acid Derivatives Conjugated with Acyl-Thiourea Peptide Moiety as Antitumor Agents” (International Journal of Molecular Sciences, 2015).

Assays:
Type in all cases: cell-based
SK-OV-3 = assay: MTT cytotoxicity assay, SK-OV-3; conditions: Homo sapiens, 48 h, mean ± SD, three independent experiments
Method: (§1) The in vitro cytotoxic potency of DHAA acyl-thiourea derivatives 8a–8o and 9a–9o were evaluated by 3-(4,5-dimethylthiazol-2-yl)-2,5-diphenyltetrazolium bromide (MTT) assay against HeLa, SK-OV-3 and MGC-803 tumor cell lines, with 5-FU as the positive control.
(§2) General procedure for cytotoxic evaluation in vitro: HeLa, HepG2, SK-OV-3 and MGC-803 cells were seeded into 96-well microculture plates and allowed to adhere for 24 h, respectively. After cells were exposed to compounds at concentrations from 100 to 0.01 μM for 48 h, medium was aspirated and replenished with complete medium. IC50 was evaluated by MTT tetrazolium dye assay. Each experiment was performed three times; Statistical analysis: All statistical analysis was performed with SPSS Version 10 (SPSS, Chicago, IL, USA). Data was analyzed by one-way ANOVA. Mean separations were performed using the least significant difference method. Each experiment was replicated thrice, and all experiments yielded similar results. Measurements from all the replicates were combined, and treatment effects were analyzed.

HeLa = assay: MTT cytotoxicity assay, HeLa; conditions: Homo sapiens, 48 h, mean ± SD, three independent experiments
Method: as §1, §2

HL-7702 = assay: MTT cytotoxicity assay, HL-7702 normal cells; conditions: L02, 48 h, normal human cells, mean ± SD, three independent experiments
Method: [The source words this procedure for another cell line and reports this cell line under the same test.] as §1, §2

MGC-803 = assay: MTT cytotoxicity assay, MGC-803; conditions: Homo sapiens, 48 h, mean ± SD, three independent experiments
Method: as §1, §2

SMILES | IC50 (SK-OV-3) | IC50 (HeLa) | IC50 (HL-7702) | IC50 (MGC-803)
CC(C)c1ccc2c(c1)CCC1[C@](C)(C(=O)NC(=S)N[C@H](Cc3ccccc3)C(=O)Nc3ccc(Cl)cc3)CCC[C@]21C (stereo partly drawn) [Compound 9e, (1R,4aS)-N-(((R)-1-((4-Chlorophenyl)amino)-1-oxo-3-phenylpropan-2-yl)carbamothioyl)-7-isopropyl-1,4a-dimethyl-1,2,3,4,4a,9,10,10a-octahydrophenanthrene-1-carboxamide] | 18.5 ± 1.27 µM | 17.2 ± 1.25 µM | 38.5 ± 1.22 µM | 17.1 ± 2.87 µM
COc1ccccc1NC(=O)[C@@H](Cc1ccccc1)NC(=S)NC(=O)[C@]1(C)CCC[C@]2(C)c3ccc(C(C)C)cc3CCC12 (stereo partly drawn) [Compound 9f, (1R,4aS)-7-Isopropyl-N-(((R)-1-((2-methoxyphenyl)amino)-1-oxo-3-phenylpropan-2-yl)carbamothioyl)-1,4a-dimethyl-1,2,3,4,4a,9,10,10a-octahydrophenanthrene-1-carboxamide] | 18.9 ± 1.72 µM | 28.1 ± 2.23 µM | 38.4 ± 1.45 µM | 20.7 ± 1.41 µM
COc1ccc(NC(=O)[C@@H](Cc2ccccc2)NC(=S)NC(=O)[C@]2(C)CCC[C@]3(C)c4ccc(C(C)C)cc4CCC23)cc1 (stereo partly drawn) [Compound 9g, (1R,4aS)-7-Isopropyl-N-(((R)-1-((4-methoxyphenyl)amino)-1-oxo-3-phenylpropan-2-yl)carbamothioyl)-1,4a-dimethyl-1,2,3,4,4a,9,10,10a-octahydrophenanthrene-1-carboxamide] | 20.1 ± 1.78 µM | 15.6 ± 1.53 µM | 41.1 ± 1.32 µM | 26.1 ± 2.63 µM
CC(C)c1ccc2c(c1)CCC1[C@](C)(C(=O)NC(=S)N[C@H](Cc3ccccc3)C(=O)Nc3ccccc3F)CCC[C@]21C (stereo partly drawn) [Compound 9h, (1R,4aS)-N-(((R)-1-((2-Fluorophenyl)amino)-1-oxo-3-phenylpropan-2-yl)carbamothioyl)-7-isopropyl-1,4a-dimethyl-1,2,3,4,4a,9,10,10a-octahydrophenanthrene-1-carboxamide] | 28.8 ± 2.32 µM | 18.8 ± 1.45 µM | 49.4 ± 2.64 µM | 24.7 ± 3.33 µM
CC(C)c1ccc2c(c1)CCC1[C@](C)(C(=O)NC(=S)N[C@H](Cc3ccccc3)C(=O)Nc3ccc(F)cc3)CCC[C@]21C (stereo partly drawn) [Compound 9i, (1R,4aS)-N-(((R)-1-((4-Fluorophenyl)amino)-1-oxo-3-phenylpropan-2-yl)carbamothioyl)-7-isopropyl-1,4a-dimethyl-1,2,3,4,4a,9,10,10a-octahydrophenanthrene-1-carboxamide] | 26.5 ± 2.07 µM | 23.7 ± 1.01 µM | 46.4 ± 2.44 µM | 21.4 ± 1.88 µM
CC(C)c1ccc2c(c1)CCC1[C@](C)(C(=O)NC(=S)N[C@H](Cc3ccccc3)C(=O)Nc3ccccc3Br)CCC[C@]21C (stereo partly drawn) [Compound 9j, (1R,4aS)-N-(((R)-1-((2-Bromophenyl)amino)-1-oxo-3-phenylpropan-2-yl)carbamothioyl)-7-isopropyl-1,4a-dimethyl-1,2,3,4,4a,9,10,10a-octahydrophenanthrene-1-carboxamide] | 40.3 ± 3.41 µM | 12.7 ± 1.03 µM | 60.5 ± 3.43 µM | 21.3 ± 1.27 µM
CC(C)c1ccc2c(c1)CCC1[C@](C)(C(=O)NC(=S)N[C@H](Cc3ccccc3)C(=O)Nc3ccc(Br)cc3)CCC[C@]21C (stereo partly drawn) [Compound 9k, (1R,4aS)-N-(((R)-1-((4-Bromophenyl)amino)-1-oxo-3-phenylpropan-2-yl)carbamothioyl)-7-isopropyl-1,4a-dimethyl-1,2,3,4,4a,9,10,10a-octahydrophenanthrene-1-carboxamide] | 46.7 ± 4.76 µM | 15.7 ± 1.13 µM | 66.5 ± 4.48 µM | 25.5 ± 2.47 µM
Cc1cc(C)cc(NC(=O)[C@@H](Cc2ccccc2)NC(=S)NC(=O)[C@]2(C)CCC[C@]3(C)c4ccc(C(C)C)cc4CCC23)c1 (stereo partly drawn) [Compound 9l, (1R,4aS)-N-(((R)-1-((3,5-Dimethylphenyl)amino)-1-oxo-3-phenylpropan-2-yl)carbamothioyl)-7-isopropyl-1,4a-dimethyl-1,2,3,4,4a,9,10,10a-octahydrophenanthrene-1-carboxamide] | 31.5 ± 2.23 µM | 15.8 ± 1.55 µM | 53.4 ± 2.24 µM | 18.1 µM
CC(C)c1ccc2c(c1)CCC1[C@](C)(C(=O)NC(=S)N[C@H](Cc3ccccc3)C(=O)Nc3cccc4ccccc34)CCC[C@]21C (stereo partly drawn) [Compound 9m, (1R,4aS)-7-Isopropyl-1,4a-dimethyl-N-(((R)-1-(naphthalen-1-ylamino)-1-oxo-3-phenylpropan-2-yl)carbamothioyl)-1,2,3,4,4a,9,10,10a-octahydrophenanthrene-1-carboxamide] | 15.3 ± 1.73 µM | 12.8 ± 1.2 µM | 35.6 ± 1.53 µM | 22.9 ± 1.66 µM
COc1cc(NC(=O)[C@@H](Cc2ccccc2)NC(=S)NC(=O)[C@]2(C)CCC[C@]3(C)c4ccc(C(C)C)cc4CCC23)cc(OC)c1OC (stereo partly drawn) [Compound 9o, (1R,4aS)-7-Isopropyl-1,4a-dimethyl-N-(((R)-1-oxo-3-phenyl-1-((3,4,5-trimethoxyphenyl)amino)propan-2-yl)carbamothioyl)-1,2,3,4,4a,9,10,10a-octahydrophenanthrene-1-carboxamide] | 29.3 ± 2.04 µM | 17.5 ± 1.54 µM | 59.3 ± 2.54 µM | 29.3 ± 2.09 µM
